Assay results as given in patent US9480695B2, “Methods for inducing orexin neurons and agent for treating narcolepsy or eating disorder” (THE UNIVERSITY OF TOKYO, priority 2011, dated 2016).

Assays:
[1] = test system: Mouse ES cells (J1 strain); assay: Hcrt expression in mouse ES cells, SFEB/gfCDM differentiation culture system, RT-PCR; assay type: cell-based; conditions: 1.0 mM from 7th day of differentiation culturing
Description: Mouse ES cells (J1 strain) which had been maintained in a medium for an ES cell were seeded on a 96-well low adhering round-bottom culture dish (Nunc) so that the cell count became 10,000 cells per well, and cultured with gfCDM [IMDM/F12 (Invitrogen) added with 5 mg/ml BSA (SIGMA), 450 μM Monothioglycerol (Wako), 1× chemically defined lipid concentrate (Invitrogen), 50 U/ml penicillin/50 μg/ml streptomycin] for 7 days. The cells were cultured in 150 μl of a medium per well. On 7th day of differentiation culturing, the medium was exchanged with a DFK medium [DMEM/F12 (Invitrogen) added with 7 g/1 glucose, 10% KSR, 50 U/ml penicillin/50 μg/ml streptomycin], and on 10th day, half the amount of the medium was exchanged with a DFNB medium [7 g/1 glucose, 1×N2 (Wako), 1×B27 (Invitrogen)] containing 10 ng/ml CNTF. On 13th day of culturing, cells were detached with 0.05% trypsin/EDTA, seeded on a culture dish (Falcon) which had been treated with poly-D-lysine/laminin so that the cell count became 4.8×10^6 cells per 10 cm culture dish, and cultured in a DFNB medium containing 10% FBS, 10 ng/ml CNTF, 50 ng/ml BDNF and 50 ng/ml NT3. The medium was exchanged every 3 days. On 25th day of differentiation culturing, cells were collected and pelletized by a centrifugation operation to remove the culture medium. Thereafter, the pellets were immediately frozen in liquid nitrogen, and stored at −80° C. until use.
The analysis was performed by the same method as that of Example 1.

[2] = test system: human iPS cell strain 201B7; assay: Orexin-positive cells in neurally differentiated colony induced from human iPS cell, immunostaining; assay type: cell-based; conditions: differentiation as in Example 5; anti-human orexin antibody fluorescence
Description: Cells which had been differentiation-induced on a 4-well culture plate by the method described in Example 5 were fixed with a 4% paraformalin solution, and cellular membrane permeability treatment was performed with a 0.2% Triton-X100 solution. The cells were treated with a 5% bovine serum albumin solution, followed by treatment with a primary antibody (anti-human orexin antibody, anti-human tubulin III antibody) at 4° C. overnight. After a reaction with a secondary labeled antibody (Alex-Fluor 488-labeled donkey anti-goat antibody, Alexa-Fluor 594-labeled rabbit anti-mouse antibody), a nuclear DNA was stained with DAPI.

[3] = test system: orexin gene-expressing cells (orexin neuron) in the lateral hypothalamic area; assay: Increase in orexin neuron in vivo, in situ hybridization of lateral hypothalamic area of old mouse; conditions: old mouse C57BL/6 male, 5 mg/ml in drinking water, 8 weeks from 53- to 61-week-old, versus non-administration old mouse; FIG. 12
Description: ManNAc was dissolved in drinking water, and the drinking water with a concentration of 5 mg/ml was administered to old mouse (C57BL/6, male) by allowing free access to water for 8 weeks in total from 53-week-old to 61-week-old. After completion of the administration, the aforementioned mouse was immediately perfusion fixed and subjected to in situ hybridization method. As a control group, ManNAc non-administration old mouse (61-week-old at the time point of fixing) and young mouse (10-week-old at the time point of fixing) were used.
Each three mice of ManNAc administration and control groups were anesthetized with Nembutal, and perfusion fixed with formamide fixative (Genostaff). The brain was removed, embedded in paraffin, and 6 μm-thick sections were prepared in the sagittal section direction. […]
was cloned into a […] vector (Promega) and, using the plasmid as a template and DIG RNA Labeling Mix (Roche), a digoxygenin-labeled RNA probe was produced. […] The cells that expressed orexin gene were counted and the average of three animals and the standard error were determined.

CC(=O)N[C@@H]1C(O)O[C@H](CO)[C@@H](O)[C@@H]1O (stereo partly drawn) [ManNAc, N-acetyl-D-mannosamine]
Level of Hcrt expression compared with Neu5Ac-added section [1]: high expression of Hcrt was observed
Expression of Hcrt ([1]; cells collected on 25th day, FIG. 5): expression of Hcrt was recognized
ratio of orexin-positive cells in a neurally differentiated colony [2]: 4.9%
number of orexin gene-expressing cells (orexin neuron) in the lateral hypothalamic area [3]: orexin neuron increased
